Data set [1] has as its system freely-moving adult male Sprague—Dawley rats.
Data set [2] concerns adult male Sprague—Dawley rats. The data set is described as follows: Behaviors observed after injection. The format is in vivo, rat. As to conditions: GSHee 100 μmol/kg IV.
Data set [3] concerns adult male Sprague—Dawley rats. The data set is described as follows: Body temperature (BT), rectal thermistor probe. The settings on record: for Body temperature, Post-drug: conscious rats.
Data set [4] has as its system adult male Sprague—Dawley rats. In words: Arterial blood gas measurements and A-a gradient. It is filed as in vivo, rat. The settings on record: GSHee 100 μmol/kg IV alone.
For data set [5], the system named is adult male Sprague—Dawley rats. As to conditions: rat, in vivo, iv.
The mark [6] stands for this setting: GSH 100 μmol/kg IV, % change from Pre-values.
The mark [7] stands for this setting: GSH 100 μmol/kg IV, sum of the 15 individual % change from pre values.

Regarding `N[C@@H](CCC(=O)N[C@@H](CS)C(=O)NCC(=O)O)C(=O)O` [GSH, glutathione], in data set [1] (GSH 100 μmol/kg IV alone), the “Freq (frequency of breathing)” value is given as “prompt but short-lived increase”, the “MV (minute ventilation)” value is reported as “short-lived increases” and the “TV (tidal volume)” value was “minor effects”. Moreover, in data set [1] (setting [6]), the “Frequency (breaths/min), Peak drug response, %” value is “+41%”; the “Minute Ventilation (ml/min), Peak drug response, %” value is 61%; the “Tidal Volume (ml), Peak drug response, %” value is listed as “+15%”. Further, in data set [1] (setting [7]), the “Frequency, Total drug response, %” value was “+13%”; the “Minute Ventilation, Total drug response, %” value is on record as 15%; the “Tidal Volume, Total drug response, %” value is “+2%”.
In the case of `CCOC(=O)CNC(=O)[C@H](CS)NC(=O)CC[C@H](N)C(=O)O` [GSHee, L-glutathione ethyl ester], the “behavioral signs (movement, squealing, scratching or sniffing) after injection” value in data set [2] is listed as “did not display any obvious behavioral signs”. For the same compound, the “body temperature (BT)” value in data set [3] (5 and 15 min post-injection of GSHee 100 μmol/kg IV) is recorded as “Neither vehicle nor GSHee affected BT”. In data set [3] (5 min after GSHee 100 μmol/kg IV), the “Body temperature, Post-drug” value was found to be 37.9 ± 0.1. For the same compound, the “Body temperature, Post-drug” value in data set [3] (15 min after GSHee 100 μmol/kg IV) amounted to 37.9 ± 0.1. Moreover, in data set [4], the A-a gradient entry is recorded as “did not affect”, the “arterial blood pCO2” value was “minor but significant decrease”, the “arterial blood pH” value is listed as “minor but significant increases” and the “arterial blood pO2” value is listed as “minor but significant increases”. The “arterial blood sO2” value in data set [4] is recorded as “did not affect”. The “tail-flick latency (TFL)” value in data set [5] is reported as “did not alter TFL”.

Source of the values: patent publication US12011428B2, “Compositions and methods for stimulating ventilatory and/or respiratory drive” (priority 2022, dated 2024).
